Laboratory results taken from patent publication US9408859B2, “Pharmaceutical compositions useful for preventing and treating cancer” (Mitotech SA, priority 2007, dated 2016).
Peptide text beside a SMILES is read from it. * marks the point of attachment. Cbz = O=C(OCc1ccccc1)*; CH2F = FC*

Tests used:
[1] = tested on: Lung Lewis's carcinoma; test: SkQ1 combined with doxorubicin on growth of lung Lewis's carcinoma; format: in vivo, mouse; conditions: regime per group
Description: For development of oncological diseases joint therapy that combines SkQ1 and chemotherapy, a study on SkQ1 influence on single doxorubicin injection efficiency was performed (one of the mechanisms of the preparation is activation of oxidative processes in normal and cancerous cells). SkQ1 was introduced before, simultaneously, or after introduction of doxorubicin in maximum dose of 500 nM/kg (in order to block oxidative mechanism of doxorubicin influence).
Doxorubicin was applied before, after, and during the course of SkQ1.

[2] = tested on: human rhabdomyosarcoma cell line (RD); test: Apoptosis in RD cells (Hoechst staining, propidium iodide flow cytometry); format: cell-based; conditions: for Induction of apoptosis: 1 mM NAC or 100 mM Trolox for 24 hours
Description: To determine the viability of the cells, chromatine condensation and fragmentation was analyzed in similarly-treated cells (20 nM SkQ or 1 mM NAC or 100 mM Trolox for 24 hours and 1 μm FCCP one hour before SkQ1 where indicated) after staining with Hoechst 3342 (GenScript, Cat. No. L00309, performed according to manufacture manual http://www.genscript.com/tech_guide/TM0361.pdf). The cells were then examined using an Axiovert fluorescent microscope equipped with objectives 20× (dry) and 100× (oil immersion Neofluar) (Carl Zeiss).
Further evidence of apoptosis was obtained by analysis of DNA content in the cellular population using flow cytometry. Cells were incubated with 0.05% ethanol was added (control) or with 20 nM SkQ1 for 24 hours, and then fixed and stained with propidium iodide (5 μM). They were then analyzed by flow cytometry using a FC-500 FACS (Beckman Coulter, Inc., Brea, Calif.).

[3] = tested on: tumor xenografts (tumors of epithelial cancers); conditions: as stated in WO2006005759, cited from earlier work
[4] = tested on: human rhabdomyosarcoma cell line (RD); test: RD cell morphology, attachment and multinuclear cells; format: cell-based; conditions: 20 nM, pretreatment for 24 hours
Description: In the following experiment, a human rhabdomyosarcoma cell line (RD) purchased from the ATCC (#CCL-136) was used. These cells were isolated from a […] 7 years ago and are widely accepted as a model for studies of rhabdomyosarcoma in vitro and in vivo.
The cells were grown in Dulbecco's modified Eagle's medium (DMEM, Gibco®, Invitrogen, Carlsbad, Calif.) supplemented with 10% FBS. The cells were treated with 20 nM SkQ (SkQ1, SkQR1, SkQB1, or SkQBP1), or with a non-targeted antioxidant (1 mM NAC, or 100 μM Trolox) 24 to 72 hours before evaluation. In some experiments 1 μM of the protonophorous uncoupler FCCP was added 1 hour before the addition of SkQ1 to depolarize the mitochondrial membrane, and thus to prevent the electrophoretic accumulation of SkQ in the mitochondrial interior. The cells were then stained with rabbit polyclonal antibodies against actin (1:1000) (Sigma-Aldrich Corp., Baleras, Russia) and monoclonal antibody DM1A against tubulin (1:1000) (Sigma-Aldrich Corp.), and their morphology examined using an Axiovert fluorescent microscope equipped with objectives 20× (dry) and 100× (oil immersion Neofluar) (Carl Zeiss, Germany).

COc1cccc2c1C(=O)c1c(O)c3c(c(O)c1C2=O)C[C@@](O)(C(=O)CO)C[C@@H]3O[C@H]1C[C@H](N)[C@H](O)[C@H](C)O1 [DOX, doxorubicin, reference compound]
TGS %, by tumor volume ([1]; Day 10): 26% | TGS %, by tumor volume ([1]; Day 14): 38% | TGS %, by tumor volume ([1]; Day 14, listed as doxorubicin): 36% | TGS %, by tumor volume ([1]; Day 17): 35% | TGS %, by tumor volume ([1]; Day 21): 30%

N#CC(C#N)=NNc1ccc(OC(F)(F)F)cc1 [FCCP]
Effect on pro-apoptotic action of SkQs ([2]; 1 μm FCCP one hour before SkQ1): prevented their pro-apoptotic action

COC1=C(OC)C(=O)C(CCCCCCCCCC[P+](c2ccccc2)(c2ccccc2)c2ccccc2)=C(C)C1=O [MitoQ]
necrosis [3]: increased necrosis | vascularization of the tumor xenografts [3]: decreased vascularization | tumor size ([3]; no experimental data shown): tumor size reduction

CC(=O)N[C@@H](CS)C(=O)O [NAC]
Induction of apoptosis [2]: induced apoptosis in RD cells but only at much higher concentrations

COc1ccc2c(CC(=O)OCCCCCCCC3=CC(=O)C(C)=C(C)C3=O)c3[n+](cc2c1OC)CCc1cc2c(cc1-3)OCO2 [SkQB1]
Cell morphology [4]: induced the formation of elongated cells

COc1cc2c(cc1OC)-c1c(CC(=O)OCCCCCCCC3=CC(=O)C(C)=C(C)C3=O)c3ccc(OC)c(OC)c3c[n+]1CC2 [SkQBP1]
Cell morphology [4]: induced the formation of elongated cells

Cc1c(C)c2c(c(C)c1O)CCC(C)(C(=O)O)O2 (centres unmarked) [Trolox]
Induction of apoptosis [2]: induced apoptosis in RD cells but only at much higher concentrations

COC(=O)C[C@H](NC(=O)[C@H](C)NC(=O)[C@@H](NC(=O)OCc1ccccc1)C(C)C)C(=O)CF [zVADfmk] (Cbz-Val-Ala-Asp(OMe)-CH2F)
Effect on cell death caused by SkQs ([2]; pan-caspase inhibitor): Cell death was prevented
